Test results: PubChem BioAssay (NCI)
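How tested: cells in 96-well plates exposed to compound for 48 hours at five concentrations. Abbreviation: GI50, concentration required for 50% inhibition of growth. At the TGI there is no net growth.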

Tests used:
Experiment in all cases: NCI anticancer screen, dose series, 48 h
[1] = system: MDA-MB-231 breast
[2] = system: UACC-62 melanoma
[3] = system: RXF 393 renal
[4] = system: OVCAR-4 ovarian
[5] = system: SK-MEL-28 melanoma
[6] = system: IGROV1 ovarian
[7] = system: T-47D breast
[8] = system: SK-OV-3 ovarian
[9] = system: HS 578T breast
[10] = system: K-562 leukemia

Structure (SMILES)	GI50 [1]	TGI [1]	GI50 [2]	TGI [2]	GI50 [3]	TGI [3]	GI50 [4]	TGI [4]	GI50 [5]	TGI [5]	GI50 [6]	TGI [6]	GI50 [7]	TGI [7]	GI50 [8]	TGI [8]	GI50 [9]	TGI [9]	TGI [10]	GI50 [10]
COc1cc(-c2nn(-c3cccc(NC(=O)CCN4CCN(Cc5ccccc5)CC4)c3)cc2-c2ccncc2)ccc1Cl	1.64 µM	3.71 µM	1.13 µM	2.7 µM	0.705 µM	2.28 µM	1.8 µM	41 µM	1.33 µM	2.84 µM	0.954 µM	7.88 µM	2.76 µM	27.6 µM	4.86 µM	20.6 µM	1.02 µM	4.34 µM		
O=C(O)CCNS(=O)(=O)c1ccc([N+](=O)[O-])cc1				> 100 µM		> 100 µM		> 100 µM		> 100 µM		> 100 µM				> 100 µM			> 100 µM	
COc1cc(C(=O)Nc2cc(O)c(CC=C(C)C)c(O)c2)cc2c1O[C@]1(C)CC[C@@H](O)C(C)(C)[C@H]1C2	1.16 µM	4.53 µM	0.187 µM	1.57 µM	0.0345 µM	2.89 µM	10.1 µM	> 100 µM	2.03 µM	22.8 µM	7.06 µM	46.3 µM	1.12 µM	14.3 µM	0.729 µM	17.3 µM	0.0471 µM	14 µM		
N#CNc1nc(N)c(-c2ccc(Cl)cc2)c(C(=O)Nc2nccs2)n1				> 100 µM		> 100 µM		> 100 µM		> 100 µM		> 100 µM							> 100 µM	
COC(=O)C(C(=O)C(=O)Nc1ccc([N+](=O)[O-])cc1)c1nc2ccc([N+](=O)[O-])cc2[nH]c1=O (centres undefined)				> 100 µM		> 100 µM		> 100 µM		> 100 µM		> 100 µM				> 100 µM			> 100 µM	
C[n+]1c2ccccc2nc2c(N)cc(N)cc21	21.7 µM	> 100 µM	12.9 µM	31.7 µM			5.87 µM	> 100 µM	10.3 µM	24.1 µM	14.4 µM	57 µM	3.95 µM	40.9 µM	25.8 µM	> 100 µM	3.63 µM	20.6 µM	33.2 µM	3.07 µM
N#CCN1C(=O)c2cc([N+](=O)[O-])cc3cc([N+](=O)[O-])cc(c23)C1=O				29.2 µM		21.3 µM		28.4 µM		> 52.8 µM		18.3 µM				> 100 µM			33.4 µM	
O=Cc1ccc2c(c1I)OCO2				> 100 µM				> 100 µM				> 100 µM				> 100 µM			> 100 µM	
O=C(/C=C/c1ccc(Cl)c(Cl)c1)c1cccc2ccccc12				25.5 µM				20.7 µM		33.5 µM		24.8 µM				35.2 µM			11.2 µM	
O=C(Cc1nc2ccccc2o1)C(=O)Nc1cccc(C(F)(F)F)c1				> 100 µM				> 100 µM		> 100 µM		> 100 µM				> 100 µM			> 100 µM	
Cc1cc2c(c(C(N)=O)c1C)-c1cc(Cl)cc(Cl)c1C2=O				> 100 µM		> 100 µM		> 100 µM		> 100 µM		> 100 µM				> 100 µM			> 100 µM	
O=c1c2cc(F)ccc2sc2c(NCCCNCCO)nc3ccccc3c12	1.56 µM	3.03 µM	1.73 µM	3.23 µM	1.49 µM	2.9 µM	1.92 µM	4.05 µM	1.75 µM	3.25 µM	1.43 µM	2.9 µM					1.7 µM	3.74 µM		
O=C1OC(=O)c2c1c(-c1ccccc1)nc1ccccc21				> 100 µM		> 100 µM				> 100 µM		> 100 µM				> 100 µM			> 100 µM	
C/C(=N\O)c1cccc(Nc2cc(-n3ccnc3)c3ccccc3n2)c1	6.26 µM	24 µM	6.63 µM	19.5 µM					14.3 µM	29.8 µM	4.3 µM	20.5 µM	9.32 µM	35.8 µM	20.9 µM	60.5 µM	17.2 µM	60.9 µM	73.1 µM	18.9 µM
N[C@H](COCc1ccccc1)c1ccccc1				> 100 µM		> 72.6 µM		> 100 µM		> 100 µM		> 100 µM				> 100 µM			87.2 µM	
CC(C)(C)c1cc2nc(c1)C(C(F)(F)F)(C(F)(F)F)OB(Br)OC2(C(F)(F)F)C(F)(F)F				0.983 µM		22 µM				18.6 µM		8.83 µM				10.7 µM			10 µM	
CN=C1OC2(c3ccccc3)C3=C(OC(=NC)N2C)C(=O)OC3(c2ccccc2)N1C (centres undefined)		> 100 µM		> 100 µM				> 100 µM		> 100 µM		> 100 µM		> 100 µM		> 100 µM		> 100 µM	> 100 µM	
C=C1[C@@H](O)O[C@H]2[C@H]1C[C@H](OC(C)=O)[C@]13C(=O)O[C@H]4C[C@](C)(O)[C@H]([C@H]41)C31C=C(C)[C@]2(O)O1	34.9 µM	> 100 µM	30.3 µM	> 100 µM			> 100 µM	> 100 µM	61 µM	> 100 µM	18.8 µM	71.4 µM	> 100 µM	> 100 µM	> 100 µM	> 100 µM			> 100 µM	53.8 µM
CC(CO)(Nc1ccc([N+](=O)[O-])cc1[N+](=O)[O-])C(=O)O (centres undefined)		> 100 µM		> 100 µM		24.6 µM				43.5 µM		53.7 µM						46.3 µM	38.6 µM	
Cc1ccncc1C(N)=O	> 100 µM	> 100 µM	> 100 µM	> 100 µM	> 100 µM	> 100 µM			> 100 µM	> 100 µM	> 100 µM	> 100 µM	> 100 µM	> 100 µM	> 100 µM	> 100 µM	> 100 µM	> 100 µM	> 100 µM	> 100 µM
